Results as given in patent US20100317605A1, “THE USE OF EPIMEDIUM FLAVONES AND EFFECTIVE COMPONENTS THEREOF FOR THE PREPARATION OF MEDICAMENTS OF PROMOTING PROLIFERATIONS AND DIFFERENTIATIONS OF NERVE CELLS” (XUANWU HOSPITAL OF CAPITAL MEDICAL UNIVERSITY, priority 2007, published 2010).

How the values were obtained:
neural stem cells = test: Differentiation of neural stem cells (second generation neurospheres) in medium without FBS; format: cell-based, SD rats
Method: The second generation of neurospheres in culture was taken, and the culture medium containing growth factors in the culture flask was removed. The neurospheres were randomly divided into two groups: (1) fetal bovine serum (FBS) control group: the culture medium was DMEM/F12+1% FBS; (2) epimedium flavanoide treatment group: the culture medium was DMEM/F12 (without FBS) added with epimedium flavanoide at a final concentration of 10, 50, 100, 200 and 400 μg/ml, respectively; (3) […] treatment group: the culture medium was DMEM/F12 (without FBS) added with […] final concentration of 10, 50, 100, 200 and 400 μg/ml, respectively. The three groups of the cells were inoculated in 24-well culture plates covered with polylysine. After 7 days of culture, the morphology of the cells was observed under inverted microscope, and fluorescent immunostaining was performed and photographed.

[1] = system: primary cultured neural stem cells (NSC); test: Survival and proliferation of primary cultured neural stem cells (neurospheres) in medium without growth factors; format: cell-based, SD rats
Method: The brains were taken from neonatal 1 day SD rats under a sterile condition, and the hippocampi were isolated and placed in culture dish containing a small amount of high glucose DMEM/F12; the meninges and blood vessels were divested, and the tissue was cut into small pieces, added with 5 ml cell culture medium, lightly blown and beaten into cell suspension with flame polished Pasteur sucker, and filtered by 400 screen mesh. The ratio of living cells was counted by trypan-blue staining. After the counting, the cells were placed into a 25 ml culture flask at a density of 2×10^6 cells/ml. Basal culture medium DMEM/F12 (1:1), cofactor B27(2%) and growth factor EGF (20 ng/ml)+bFGF (10 ng)/ml) were needed for conventional culture of NSC, and the cells grew as floating spheres in the culture medium. In order to observe the effect of different concentrations of epimedium flavanoide and its effective ingredient […] on primary cultured NSC, basal culture medium DMEM/F12 (1:1) and B27(2%) were used without growth factor, and epimedium flavanoide or […] final concentration of 10, 50, 100, 200, 400 μg/ml was added respectively. Cultures were maintained at 37° C. in a humidified atmosphere of 95% air/5% CO2. The growth state of the cells was observed under inverted microscope, and the diameter of the neurospheres was measured by micro ruler. The identification of neural stem cells: the neurospheres were taken, the culture medium containing growth factor EGF and bFGF were removed, DMEM/F12 containing 10% FBS was added, and inoculated in 24-well culture plates covered with polylysine. After 16 hours of culture, nestin and doublecortin (DCX) immunocytochemical staining was performed.

[2] = without fetal bovine serum, 7 days, vs FBS group, P<0.01 (FIG. 4)
[3] = without fetal bovine serum, 7 days, vs FBS group, P<0.01 (FIG. 5)

COc1ccc(-c2oc3c(CC=C(C)C)c(OC4OC(CO)C(O)C(O)C4O)cc(O)c3c(=O)c2OC2OC(C)C(O)C(O)C2O)cc1 (centres unmarked) [icarrin, 3-((6-deoxymannopyranosyl)oxo)-7-(pyranoglucosyloxo)-5-hydroxy-2-(4-methoxyphenyl)-8-(3-methyl-2-butenyl)-4H-1-benzopyran-4-one]
morphology of differentiated cells (neural stem cells; 50 μg/ml, DMEM/F12 without FBS, 7 days (FIG. 3D)): the neurospheres grew well and almost completely adhered, and differentiated well | growth, adhesion and differentiation of neurospheres (neural stem cells; 50, 100 μg/ml, without FBS, 7 days): the neurospheres grew well, almost completely adhered, and differentiated well | distance of cell migration (neural stem cells; [2]): farther | length of processes of differentiated cells grown from the neurospheres (neural stem cells; [2]): longer | length of the axons of neurons (neural stem cells; [3]): longer | number of NF-200 positive cells (mature neurons) (neural stem cells; [3]): increased | growth state of neurospheres ([1]; 100 μg/ml, DMEM/F12 without growth factors, 7 days (FIG. 1D)): floating neurospheres were observed | growth state and volume of neurospheres ([1]; 100 μg/ml, DMEM/F12 without growth factors, 28 days (FIG. 1E)): the neurospheres still grew well, and their volume further increased | formation of floating neurospheres ([1]; 10-400 μg/ml, DMEM/F12 without growth factors, 7 days): many floating neurospheres were formed | growth and volume of neurospheres ([1]; 100-200 μg/ml groups, without growth factors, 28 days): still grew well, but also became significantly larger in volume | diameter of neurospheres ([1]; without serum and growth factors, vs control group at 7, 14, 28 days, P<0.01 (FIG. 2)): increased gradually as the incubation time prolonged
